In patent US10759777B2, “Carbazole-containing amides, carbamates, and ureas as cryptochrome modulators” (Synchronicity Pharma, Inc., priority 2014, dated 2020):

Experiments:
[1] = system: Dbp gene expression in whole blood; assay: Dbp mRNA in whole blood of db/db mice; assay type: in vivo, mouse; settings: 100 mg/kg PO once daily for three days at ZT0, sampled ZT7.5
Experimental: For whole blood RNA studies, male db/db mice (9 weeks of age, The Jackson Laboratory, Bar Harbor, Me.) were used for the experiment with n=8 mice for each experimental group. […] On the final day at ZT7.5 (2:30 pm), animals were euthanized using CO2 asphyxiation, and the blood collected from the heart via cardiac puncture. The blood was placed in RNALater solution to 1.5 ml total volume. Total RNA was prepared using an Ambion Mouse RiboPure Blood RNA Isolation Kit AM1951 as follows. Samples were centrifuged for 3 minutes, discarding the supernatant. Two ml of lysis solution was added and vortexed, transferred to a 15 ml tube followed by the addition of […]. Lysis buffer was added to a total volume of 3.8 ml and vortexed. The sample mixture was extracted with 1.5 ml Acid Phenol: Chloroform and the aqueous phase was recovered. After adding 0.5 volumes of 100% ethanol and vortexing, the samples were passed through a filter column provided in the kit and washed with 750 microliters of wash buffer 1. The filter was washed with 2 passes of 750 microliters wash buffer 2/3 and dried. […]
For PCR analysis, the kit utilized was TaqMan® Fast Universal Master Mix (2×), No AmpErase® UNG. […] At least one housekeeping mRNA Expression Assay (e.g. GAPDH; Mm03302249_g1 or Hs02758991_g1) was included in each set of RNA samples to be assessed. […]

[2] = system: db/db mouse model of type II diabetes; assay: Compound 72 administered over 7 days in db/db mice (glucose, insulin, compound levels); assay type: in vivo; settings: 50 mg/kg PO QD 7 days
From the text: (§1) Significance was accepted when p<0.05.

[3] = system: db/db mouse model of type II diabetes; assay: Increasing dosages of Compound 72 over 7 days in db/db mice; assay type: in vivo
From the text: as §1

Compound: O=C1NCCN1CC(O)Cn1c2ccc(F)cc2c2cc(F)ccc21 (stereo not shown) [Compound 72, 1-(3-(3,6-difluoro-9H-carbazol-9-yl)-2-hydroxypropyl)imidazolidin-2-one]
- Dbp gene expression in whole blood [1]: statistically significant suppression
- OGTT glucose course ([2]; db/db mice): lower than the vehicle control group
- reduction of HOMA-IR ([2]; vs vehicle): 33%
- reduction of insulin at t=0 ([2]; vs vehicle): 20%
- reduction of insulin at t=2 hr ([2]; vs vehicle): 21%
- reduction of HOMA-IR compared to vehicle ([3]; 100 mg/kg PO QD 7 days): 34%
- OGTT glucose excursion ([3]; 10, 50, 100 mg/kg PO QD 7 days): dose dependent effect on glucose excursion
